This is an account of results in patent US20080293698A1, “Methods and Compositions for Treating Arg” (priority 2005, published 2008).

Values joined by “and” are separate entries in the source; they are usually repeats but may differ in a detail not shown here. Equal values may be shown once. Where a name gives a salt, the structure may show the parent alone.

The test system of one series is human subjects. The experiment in a line: 4-HPA and 4-HPA lactone administered to human subjects (Example 53). The following applies: for effects experienced by the subjects: at equivalent doses of GHB toxicity or sleep would have occurred.
In the next series the test system is patients. The following applies: therapeutic doses, GHB as lone agent; cited from earlier work.
Series [1] relates to patient with a sleeping disorder. Kind of series: Case report: patient with a sleeping disorder treated with alprazolam, zolpidem, gabapentin and NaGHB (Example 86). Format: in vivo, human. The procedure: Overnight polysomnography had shown minimal obstructive sleep apnea with 2 apneas per hour of sleep. The patient was placed on a regimen of the Class III agent alprazolam, the Class IV agent zolpidem, the Class V agent gabapentin, and the Class II agent the sodium salt of gamma-hydroxyl butyric acid (GHB), which were administered prior to sleep for the treatment of sleeping disorders. The initial dose of GHB was prescribed as 2.25 grams prior to sleep and repeat dose of 2.25 grams to be taken 2.5 to 4 hours after sleep onset.
At a dose of 3 grams prior to sleep and a second dose upon awakening, the patient was eating only one to two small meals per day. Their maximum previous weight had been 169 lbs and their baseline weight was 159 pounds. They lost weight down to 145 lbs and looked gaunt. They believed that the GHB had suppressed their appetite and consulted an endocrinologist, who did a thorough medical evaluation including an am cortisol, a comprehensive chemistry profile, a CBC, and thyroid studies, all of which were normal. The patient discontinued the GHB and their appetite returned within two days. Over roughly five months, they then gained weight up to 195 lbs and their weight remained stable.

The next series has as its system patient with ARG. Kind of series: Case reports: patients with ARG treated with GABAnergic agents prior to sleep. Format: in vivo, human. An excerpt: The patient was then switched to monotherapy using only NaGHB 4.5 grams prior to the intended sleep time and a second dose of 4.5 grams four hours after the first. […] The patient was switched back to treatment with multiple GABAnergic agents and again had dramatic reduction in fatigue. On a scale from 0 to 10 where 10 is the most tired, the patient rated the fatigue at 10 without treatment, 3 to 4 with treatment on multiple GABAnergic agents, and 10 on monotherapy with NaGHB.
A patient with ARG was treated with the Class IV agent zolpidem 10 mg, The Class III agent alprazolam 2 mg, the Class V agent gabapentin 200 mg, and the Class II agent sodium salt of gamma-hydroxyl butyrate 5.25 grams prior to sleep. The patient was treated chronically on a nightly basis. Sometimes, according to the patient's judgement, 3.75 grams of the sodium salt of gamma-hydroxyl butyric acid was consumed upon awakening, which usually was about six hours after the first dose of medications.
In another example a patient with ARG was given the Class I agent 660 ml red wine 13.5% alcohol by volume, the Class III agent alprazolam 3 mg, the Class V agent gabapentin 300 mg, and the Class IV agent 10 mg zolpidem. Five hours later, the patient was awoken and given the Class II agent the sodium salt of gamma-hydroxyl butyric acid 3 grams.
In another example a patient with ARG was treated with the Class I agent 660 ml red wine 13.5% alcohol by volume, the Class I agent liqeur 30% alcohol by volume 200 ml, the Class III agent alprazolam 2 mg, the […] 200 mg, and the Class II agent the sodium salt of gamma-hydroxyl butyric acid 4 grams prior to sleep.
A patient with acquired resistance to GABAnergic agents was treated with the Class III agent alprazolam 2 mg, the Class IV agent zolpidem 10 mg, the Class V agent gabapentin 200 mg, and the Class II agent NaGHB 7 grams. […] 7 grams NaGHB as a single dose is a large dose, which may be too toxic for some patients.
A patient with acquired resistance to GABAnergic agents was treated with the Class I agent red wine 660 ml 13.5% alcohol by volume, then the Class III agent alprazolam 3 mg, the Class V agent gabapentin 300 mg, the Class IV agent zolpidem 10 mg, and the Class II agent NaGHB 9 grams. 4 hours after sleep onset the patient awoke in a neighboring room in a pool of vomitus of partially digested wine. The patient was lucid and had mild nausea. The patient went back to sleep in bed for an additional 2 hours and was able to work the next day. […] The combination of red wine and such large doses of GHB are not typically recommended by the inventor and can be fatal.
A patient with ARG was given the Class III agent alprazolam 7 mg, the Class IV agent zolpidem 10 mg, and the Class V agent gabapentin 300 mg prior to sleep. […] The dose of alprazolam may be reduced by adding a Class I or Class II agent to the regimen.
A patient with ARG who had minimal obstructive sleep apnea was chronically treated with the Class I agent red wine about 200 to 1500 ml 13.5% alcohol by volume, the Class IV agent zolpidem 10 mg, the Class III agent alprazolam 3 mg, and the Class V agent gabapentin 300 mg prior to sleep. Sufficient wine was consumed to produce moderate to strong sleepiness and then the other GABAminergic medications were consumed. When the volume of wine on a particular night required to induce strong sleepiness was inconvenient, the patient quickly drank liqeur 30% alcohol by volume, typically about 160 ml, in order to induce strong sleepiness.
A patient with ARG who had minimal obstructive sleep apnea was chronically treated with the Class I agent red wine about 660 to 1500 ml about 13% alcohol by volume, the Class IV agent zolpidem 10 mg, the Class III agent alprazolam 3 mg, and the Class V agent gabapentin 300 mg prior to sleep. Sufficient wine was consumed to produce moderate to strong sleepiness and then the other GABAnergic medications were consumed. […]

Series [2] in a line: Chemical stability of GHB as a function of pH (cyclization to GBL). It is filed as physicochemical.
The test system of series [3] is patients with fibromyalgia or chronic fatigue syndrome. The following applies: cited from earlier work.
A short description of the next series: pH of NaGHB solution. Format: physicochemical. The note with it: 240 mg per ml. The protocol:
The pH of NaGHB at 240 mg per ml is approximately 9.5, at which neither pathogenic nor non-pathogenic organisms grow. As the concentration of NaGHB is increased, the pH is yet higher. […] Concentrated NaGHB is highly toxic regardless of pH and must be diluted prior to consumption. The pH of NaGHB at 500 mg/ml drops rapidly into the physiologic range upon dilution. Highly concentrated GBL and 1,4-butanediol are known to be resistant to microbial growth, require no special storage procedures, and likewise must be diluted prior to consumption, typically to 5% to 30% solutions but more preferably 5% to 20%.

Series [4] relates to patients with fibromyalgia. The following applies: 3 grams NaGHB at bedtime and a second dose about 4 h later; cited from earlier work.
The subject of the next series is GHB receptor. The note with it: reported in United States patent application 20020132846; cited from earlier work.

As to `CC(O)CCC(=O)O` (stereo not drawn) [Example 4-HPA, 4-hydroxyl pentanoic acid], in the series on human subjects, the “toxicity compared with GHB” value is “less toxic than GHB” and the “effects experienced by the subjects” value was “relaxing effects”.

For the compound `O=C(O)CCCO` [GHB, gamma hydroxyl butyric acid], the “duration of the sleep inducing effect” value with patients is 2 to 3 h and 2 to 4 h. The “sleep induction by the second dose of GHB” value in series [1] (3.75 grams upon awakening) was “usually did not induce sleep”; in the series with patient with ARG (3.75 grams upon awakening, about six hours after the first dose of medications) it was “usually did not induce sleep”. Further, the “body weight on treatment” value in series [1] (baseline weight 159 pounds, 3 grams prior to sleep and a second dose upon awakening) came to 145 lbs. In addition, the “medical evaluation (am cortisol, comprehensive chemistry profile, CBC, thyroid studies)” value in series [1] (during weight loss on GHB) is “normal”. Moreover, the “time to return of appetite after discontinuing GHB” value in series [1] (human, in vivo) is recorded as “two”. The appetite entry in [1] (within one week of beginning to take the GHB) is “marked decrease in appetite”. For the same compound, in series [2], the “pH at which gamma-butyryl lactone (cyclized form) begins to form” value is no more than 6.

Regarding cyanocobalamin, the “fatigue on the increased dose of cyanocobalamin” value in the series on patient with ARG (2000 mcg IM about every three days, in addition to multiple GABAnergic agents) is given as “mild decrease in fatigue”. The “mouth sores under vitamin treatment” value in the series on patient with ARG (cyanocobalamin 500 mcg IM once, 'rotate' 5 mg orally, multivitamin containing thiamine 1.5 mg, patient on Example 90a regimen) is “resolved”.

For the compound `O=C(O)CCCO` [NaGHB, sodium salt of gamma-hydroxyl butyric acid], the “sleep obtained per dose” value in series [3] (2.25 grams NaGHB at bedtime and again four hours later, in some instances) is 2 to 3 h. In [3] (pilot open label trial, quoted from document C), the “effect in patients diagnosed with chronic fatigue syndrome” value is on record as “no effect”. Also, the “pH of the solution” value in “pH of NaGHB solution” was “approximately 9.5”. For the same compound, the “patients in the treatment arm who withdrew due to side effects” value in series [4] was “Six of 24”. Also, the improvement on monotherapy entry with patient with ARG (NaGHB 4.5 grams twice per sleep period, no other GABAnergic agent) is recorded as “no improvement”. Besides, the “sleep induction by the first dose” value in the series with patient with ARG (monotherapy, NaGHB 4.5 grams prior to the intended sleep time) is reported as “did not induce sleep at all”. Besides, the “duration of sleep induced by the second dose” value in the series with patient with ARG (monotherapy, second dose of 4.5 grams four hours after the first) is given as “two”. The “side effects / toxicity” value with patient with ARG (patient with ARG on the regimen) is “state of near stupor”. Also, in the series on patient with ARG (scale from 0 to 10 where 10 is the most tired, 10 without treatment), the “fatigue rated by the patient” value amounted to 10.

As to `CC1CCC(=O)O1` (stereo not drawn) [4-HPA lactone, 4-hydroxyl pentanoic acid lactone], in the series with human subjects, the “toxicity compared with GHB” value was “less toxic than GHB” and the “effects experienced by the subjects” value is “relaxing effects”. Moreover, the “binding to the GHB receptor” value with GHB receptor is “bind the GHB receptor”.
